CCn1c2ccccc2c2ccccc21
solubility (mole fraction)
Conditions | in ethanol | in isopropanol | in methanol | in n-butanol | in n-pentanol | in n-propanol
279.15 K | 0.0069 | 0.0065 | 0.0028 | 0.0135 | – | 0.0092
283.15 K | 0.008 | 0.0076 | 0.0033 | 0.0151 | 0.016 | 0.0105
287.15 K | 0.0095 | 0.009 | 0.004 | 0.0172 | 0.0183 | 0.0124
291.15 K | 0.0112 | 0.0107 | 0.0047 | 0.0208 | 0.021 | 0.0142
295.15 K | 0.013 | 0.0127 | 0.0057 | 0.0234 | 0.025 | 0.0169
299.15 K | 0.0149 | 0.0152 | 0.0068 | 0.0271 | 0.0292 | 0.0202
303.15 K | 0.0182 | 0.0183 | 0.0082 | 0.0316 | 0.035 | 0.024
307.15 K | 0.0228 | 0.0223 | 0.0098 | 0.0379 | 0.042 | 0.028
311.15 K | 0.0274 | 0.028 | 0.012 | 0.0446 | 0.05 | 0.033
315.15 K | 0.0355 | 0.0342 | 0.0147 | 0.0522 | 0.0609 | 0.0401
319.15 K | 0.0433 | 0.0436 | 0.0179 | 0.0621 | 0.0743 | 0.048
